Test results as given in patent US20220218695A1, “COMBINATION OF AN ALPHA2-ADRENOCEPTOR SUBTYPE C (ALPHA-2C) ANTAGONISTS WITH A TASK1/3 CHANNEL BLOCKER FOR THE TREATMENT OF SLEEP APNEA” (Bayer Aktiengesellschaft, priority 2019, published 2022).

Test system: upper airway collapsibility in anaesthetized, spontaneously breathing pigs
Assay: pig model of obstructive sleep apnea (OSA): upper airway collapsibility under negative pressure
Format: in vivo, German Landrace pigs
Source text: The therapeutic potential of the combination of an α2-Adrenoceptor subtype C (alpha-2C) antagonists with a TASK1/3 channel blocker according to the present invention in sleep apnea can be assessed preclinically in a pig model of obstructive sleep apnea (OSA).
Using negative pressure, it is possible to induce collapse and thus obstruction of the upper respiratory tract in anaesthetized, spontaneously breathing pigs (Wirth K. J. et al., Sleep 36(5)(2013) pp. 699-708).
German Landrace pigs are used for the model. The pigs are anaesthetized and tracheotomized. Two tracheal cannulas are inserted into the trachea, one into the rostral part and the other into the caudal part of the trachea. Using a connection piece, the rostral cannula is connected to a tube to the negative pressure device and to the distal tracheal cannula. The distal tracheal cannula is additionally connected to a tube with an open end to atmosphere via a connection piece that served for free tracheal breathing, circumventing the upper airway. By appropriate opening and clamping of those tubes breathing can be switched from nasal breathing to breathing through the caudal tracheal cannula, circumventing the upper airway, and the (isolated) upper airway can be connected to the negative pressure device, causing airflow in the inspiratory direction.
At certain points in time, the collapsibility of the upper respiratory tract is tested by having the pig breathe via the caudal cannula and applying negative pressures of −50, −100 and −150 cm water head (cm H2O) to the upper respiratory tract. This causes the upper respiratory tract to collapse, which manifests itself in an interruption of the airflow and a pressure drop in the tube system. This test is conducted prior to the administration of the test substance and at certain intervals after the administration of the test substance. An appropriately effective test substance can prevent this collapse of the respiratory tract in the inspiratory phase.

[1] = 0 min (time point of intranasal administration of 0.3 μg; baseline), TASK1/3 blocker alone
[2] = 10 min after intranasal administration of 0.3 μg, TASK1/3 blocker alone
[3] = 30 min after intranasal administration of 0.3 μg, TASK1/3 blocker alone
[4] = 60 min after intranasal administration of 0.3 μg, TASK1/3 blocker alone
[5] = alpha-2C antagonist alone, 90 min after bolus injection […] and start of infusion 0.005 μg/kg/h
[6] = 0 min (time point of i.v. bolus […] and start of infusion 0.005 μg/kg/h; baseline)
[7] = 30 min after i.v. bolus […] and start of infusion 0.005 μg/kg/h, alpha-2C antagonist alone
[8] = 60 min after i.v. bolus […] and start of infusion 0.005 μg/kg/h, alpha-2C antagonist alone
[9] = 90 min after i.v. bolus […] and start of infusion 0.005 μg/kg/h, time point of nasal application of TASK1/3 channel blocker

## COc1cccc(C(=O)N2CCN(Cc3c(-c4ccc(Cl)cc4)nc4ccccn34)CC2)n1 [(4-{[2-(4-Chlorophenyl)imidazo[1,2-a]pyridin-3-yl]methyl}piperazin-1-yl)(6-methoxypyridin-2-yl)methanone]
TASK1/TASK3 channel blocker alone, 0.3 μg intranasal
  effectiveness of dose on upper airway collapsibility: non effective dose
[1]
  Percent pigs without collaps −50 cm H2O, %: 0%
  Percent pigs without collaps −100 cm H2O, %: 0%
  Percent pigs without collaps −150 cm H2O, %: 0%
[2]
  Percent pigs without collaps −50 cm H2O, %: 0%
  Percent pigs without collaps −100 cm H2O, %: 0%
  Percent pigs without collaps −150 cm H2O, %: 0%
[3]
  Percent pigs without collaps −50 cm H2O, %: 0%
  Percent pigs without collaps −100 cm H2O, %: 0%
  Percent pigs without collaps −150 cm H2O, %: 0%
[4]
  Percent pigs without collaps −50 cm H2O, %: 0%
  Percent pigs without collaps −100 cm H2O, %: 0%
  Percent pigs without collaps −150 cm H2O, %: 0%

## COC[C@@]1(C)CCCN2CCc3c(oc4ccccc34)[C@@H]21 [(1S,12bS)-1-(methoxymethyl)-1-methyl-1,3,4,6,7,12b-hexahydro-2H-[1]benzofuro[2,3-a]quinolizine]
[5]
  upper airway collapsibility at negative pressures of −50 cm head (cm H2O): only inhibited
  upper airway collapsibility at negative pressures of −100 and −150 cm head (cm H2O): induced
alpha-2C antagonist alone, i.v. bolus […] + infusion 0.005 μg/kg/h
  effectiveness of dose on upper airway collapsibility: non effective dose
alpha-2C antagonist alone, i.v. bolus […] followed by i.v. infusion 0.005 μg/kg/h for four hours
  inhibited upper airway collapsibility at all negative pressures of −50, −100 and −150 cm head (cm H2O): at no time point
[6]
  Percent pigs without collaps −50 cm H2O, %: 0%
  Percent pigs without collaps −100 cm H2O, %: 0%
  Percent pigs without collaps −150 cm H2O, %: 0%
[7]
  Percent pigs without collaps −50 cm H2O, %: 0%
  Percent pigs without collaps −100 cm H2O, %: 0%
  Percent pigs without collaps −150 cm H2O, %: 0%
[8]
  Percent pigs without collaps −50 cm H2O, %: 100%
  Percent pigs without collaps −100 cm H2O, %: 0%
  Percent pigs without collaps −150 cm H2O, %: 0%
[9]
  Percent pigs without collaps −50 cm H2O, %: 100%
  Percent pigs without collaps −100 cm H2O, %: 0%
  Percent pigs without collaps −150 cm H2O, %: 0%
